The record followed here is patent publication US20080221086A1, “Novel Inhibitors of Glutaminyl Cyclase” (PROBIODRUG AG, priority 2006, published 2008).

A word on the IC50: it is the midpoint of a concentration-inhibition curve.

Structures are written as SMILES.

Chain of hQC (Q16769 29-361): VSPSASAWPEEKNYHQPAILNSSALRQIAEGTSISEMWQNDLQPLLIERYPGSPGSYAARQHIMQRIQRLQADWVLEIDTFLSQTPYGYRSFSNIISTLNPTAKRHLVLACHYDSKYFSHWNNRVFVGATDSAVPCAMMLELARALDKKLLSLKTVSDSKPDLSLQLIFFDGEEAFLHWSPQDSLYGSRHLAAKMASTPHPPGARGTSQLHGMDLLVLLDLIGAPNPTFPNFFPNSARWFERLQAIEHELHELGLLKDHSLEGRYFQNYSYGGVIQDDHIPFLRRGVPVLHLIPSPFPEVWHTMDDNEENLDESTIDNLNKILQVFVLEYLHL

The experiment addresses hQC (Homo sapiens, UniProt Q16769). The experiment is described as follows: Fluorometric assay of glutaminyl cyclase (QC) inhibition, H-Gln-βNA or H-Gln-AMC substrate. The format is biochemical. The settings on record: read-out: IC50. In short, it runs like this: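 Fluorometric coupled assays at 30° C in Tris/HCl pH 8.0 with EDTA and pyroglutamyl aminopeptidase used either 0.2 mM H-Gln-βNA (320/410 nm) or H-Gln-AMC (380/460 nm), started by QC. Screening used 4 mM inhibitor at substrate 1 KM. Ki came from fitting progress curves to competitive inhibition.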
As to `CN(C)c1ccc(C2/C(=N\Cn3nnc4ccccc43)NC(=S)N2c2ccc3[nH]cnc3c2)cc1` (stereo not drawn) [Compound 280, 1-(1H-Benzoimidazol-5-yl)-4-benzotriazol-1-ylmethylimino-5-(4-dimethylamino-phenyl)-imidazolidine-2-thione], the concentration for half-maximal inhibition (IC50) was 1.3 µM.

For `O=C(CN=C1NC(=O)N(c2ccc3[nH]cnc3c2)C1c1ccc(Cl)c(F)c1)N1CCC(O)C1` (stereo not drawn) [Compound 281, 1-(1H-Benzoimidazol-5-yl)-5-(4-chloro-3-fluoro-phenyl)-4-2-(3-hydroxy-pyrrolidin-1-yl)-2-oxo-ethylimino-imidazolidin-2-one], the IC50 came to 6.7 µM.

Consider `O=C(C/N=C1/NC(=O)N(c2ccc3[nH]cnc3c2)C1c1ccc2nsnc2c1)N1CCC(O)C1` (stereo not drawn) [Compound 282, 1-(1H-Benzoimidazol-5-yl)-5-benzo[c][1,2,5]thiadiazol-5-yl-4-2-(3-hydroxy-pyrrolidin-1-yl)-2-oxo-ethylimino-imidazolidin-2-one], for which the IC50 is 4.9 µM.

Regarding `Cc1ccc(C2/C(=N/C3CCCCCC3)NC(=O)N2c2ccc3nc[nH]c3c2)c(C)c1` (stereo not drawn) [Compound 283, 1-(3H-Benzoimidazol-5-yl)-4-cycloheptylimino-5-(2,4-dimethyl-phenyl)-imidazolidin-2-one], the 50% inhibitory concentration (IC50) was 0.4 µM.

As to `S=C1N/C(=N/CCCc2ccccc2)C(c2ccc3[nH]ccc3c2)N1c1ccc2[nH]cnc2c1` (stereo not drawn) [Compound 284, 1-(1H-Benzoimidazol-5-yl)-5-(1H-indol-5-yl)-4-3-phenyl-propylimino-imidazolidine-2-thione], the concentration for half-maximal inhibition (IC50) is 1.3 µM.

Take `Cc1cccc(C2/C(=N\Cn3nnc4ccccc43)NC(=S)N2c2ccc3[nH]cnc3c2)c1` (stereo not drawn) [Compound 285, 1-(1H-Benzoimidazol-5-yl)-4-benzotriazol-1-ylmethylimino-5-m-tolyl-imidazolidine-2-thione]: the IC50 was 1.3 µM.

For `CC(C)(C)CC(C)(C)/N=C1\CN(c2ccc3nc[nH]c3c2)C(=S)N1` [Compound 286, 1-(3H-Benzoimidazol-5-yl)-4-1,1,3,3-tetramethyl-butylimino-imidazolidine-2-thione], the IC50 came out at 5.8 µM.

In the case of `CCc1ccccc1/N=C1\NC(=O)N(c2ccc3[nH]cnc3c2)C1c1ccc2c(c1)OCO2` (stereo not drawn) [Compound 287, 5-Benzo1,3dioxol-5-yl-1-(1H-benzoimidazol-5-yl)-4-2-ethyl-phenylimino-imidazolidin-2-one], the IC50 is 3.1 µM.

Consider `CCc1ccccc1/N=C1\NC(=S)N(c2ccc3nc[nH]c3c2)C1C1CCC(C)=CC1C` (stereo not drawn) [Compound 288, 1-(3H-Benzoimidazol-5-yl)-5-(2,4-dimethyl-cyclohex-3-enyl)-4-2-ethyl-phenylimino-imidazolidine-2-thione], for which the half-inhibitory concentration (IC50) is 7.6 µM.

With `O=C1CCCN1CCC/N=C1/NC(=O)N(c2ccc3[nH]cnc3c2)C1c1ccc2[nH]ccc2c1` (stereo not drawn) [Compound 289, 1-(1H-benzoimidazol-5-yl)-5-(1H-indol-5-yl)-4-3-(2-oxo-pyrrolidin-1-yl)-propylimino-imidazolidin-2-one], the 50% inhibitory concentration (IC50) is 0.004 µM.

As to `COC(=O)C(C)N=C1NC(=O)N(c2ccc3[nH]cnc3c2)C1c1c(F)cc(Cl)cc1F` (stereo not drawn) [Compound 290, Methyl 2-(1-(1H-benzo[d]imidazol-5-yl)-5-(4-chloro-2,6-difluorophenyl)-2-oxoimidazolidin-4-ylideneamino)propanoate], the IC50 is 0.4 µM.

As to `S=C1NC(=Nc2ccccc2Br)C(c2ccc3[nH]ccc3c2)N1c1ccc2nc[nH]c2c1` (stereo not drawn) [Compound 291, 1-(3H-Benzoimidazol-5-yl)-4-2-bromo-phenylimino-5-(1H-indol-5-yl)-imidazolidine-2-thione], the IC50 is 4 µM.

In the case of `O=C1N/C(=N\c2ccc3c(c2)OCCO3)C(c2ccc3c(c2)OCO3)N1c1ccc2[nH]cnc2c1` (stereo not drawn) [Compound 292, 5-Benzo1,3dioxol-5-yl-1-(1H-benzoimidazol-5-yl)-4-2,3-dihydro-benzo1,4dioxin-6-ylimino-imidazolidin-2-one], the IC50 came out at 1.3 µM.

Consider `Cc1ccc(C2/C(=N/C(C)(C)CC(C)(C)C)NC(=O)N2c2ccc3nc[nH]c3c2)cc1` (stereo not drawn) [Compound 293, 1-(3H-Benzoimidazol-5-yl)-4,1,1,3,3-tetramethyl-butylimino-5-p-tolyl-imidazolidin-2-one], for which the half-maximal inhibitory concentration (IC50) came out at 5.8 µM.

Regarding `CC1=CC(C)C(C2C(=NCC(=O)N3CCSCC3)NC(=O)N2c2ccc3[nH]cnc3c2)CC1` (stereo not drawn) [Compound 294, 1-(1H-Benzoimidazol-5-yl)-5-(2,4-dimethyl-cyclohex-3-enyl)-4-2-oxo-2-thiomorpholin-4-yl-ethylimino-imidazolidin-2-one], the concentration for half-maximal inhibition (IC50) is 1.3 µM.

As for `O=C1N/C(=N/CCN2CCOCC2)C(c2cc(Br)cc(Br)c2)N1c1ccc2nc[nH]c2c1` (stereo not drawn) [Compound 296, 1-(3H-Benzoimidazol-5-yl)-5-(3,5-dibromo-phenyl)-4-2-morpholin-4-yl-ethylimino-imidazolidin-2-one], the 50% inhibitory concentration (IC50) was determined as 4.9 µM.

Take `O=C1N/C(=N\C2CCCCC2O)C(c2coc3ccccc3c2=O)N1c1ccc2[nH]cnc2c1` (stereo not drawn) [Compound 297, 1-(1H-Benzoimidazol-5-yl)-4-2-hydroxy-cyclohexylimino-5-(4-oxo-4H-chromen-3-yl)-imidazolidin-2-one]: the IC50 was determined as 9.4 µM.

Consider `CC(C)CC(C)N=C1NC(=O)N(c2ccc3[nH]cnc3c2)C1c1ccccc1C(F)(F)F` (stereo not drawn) [Compound 298, 1-(1H-Benzoimidazol-5-yl)-4-1,3-dimethyl-butylimino-5-(2-trifluoromethyl-phenyl)-imidazolidin-2-one], for which the IC50 turned out to be 6.7 µM.

As to `Cc1cccc(C2/C(=N/c3cc(Cl)ccc3Cl)NC(=S)N2c2ccc3[nH]cnc3c2)c1` (stereo not drawn) [Compound 299, 1-(1H-Benzoimidazol-5-yl)-4-2,5-dichloro-phenylimino-5-m-tolyl-imidazolidine-2-thione], the IC50 turned out to be 7.6 µM.

As for `CC1=CC(C)C(C2/C(=N/c3ccccc3Br)NC(=S)N2c2ccc3[nH]cnc3c2)CC1` (stereo not drawn) [Compound 300, 1-(1H-Benzoimidazol-5-yl)-4-2-bromo-phenylimino-5-(2,4-dimethyl-cyclohex-3-enyl)-imidazolidine-2-thione], the 50% inhibitory concentration (IC50) amounted to 9.4 µM.

As to `O=C1N/C(=N\C2CCCCCC2)C(c2cc(Br)cc(Br)c2)N1c1ccc2nc[nH]c2c1` (stereo not drawn) [Compound 301, 1-(3H-Benzoimidazol-5-yl)-4-cycloheptylimino-5-(3,5-dibromo-phenyl)-imidazolidin-2-one], the IC50 is 0.004 µM.

Consider `O=C(C/N=C1/NC(=O)N(c2ccc3[nH]cnc3c2)C1c1ccc(Cl)c(F)c1)N1CCCCC1` (stereo not drawn) [Compound 302, 1-(1H-Benzoimidazol-5-yl)-5-(4-chloro-3-fluoro-phenyl)-4-2-oxo-2-piperidin-1-yl-ethylimino-imidazolidin-2-one], for which the concentration for half-maximal inhibition (IC50) was 3.1 µM.

Turning to `O=C1N/C(=N/CCCc2ccccc2)C(c2cc(Br)cc(Br)c2)N1c1ccc2[nH]cnc2c1` (stereo not drawn) [Compound 303, 1-(1H-Benzoimidazol-5-yl)-5-(3,5-dibromo-phenyl)-4-3-phenyl-propylimino-imidazolidin-2-one], the 50% inhibitory concentration (IC50) is 0.004 µM.

For `COC(=O)C(C)N=C1NC(=S)N(c2ccc3[nH]cnc3c2)C1c1ccccc1` (stereo not drawn) [Compound 304, Methyl 2-(1-(1H-benzo[d]imidazol-5-yl)-5-phenyl-2-thioxoimidazolidin-4-ylideneamino)propanoate], the half-maximal inhibitory concentration (IC50) turned out to be 7.6 µM.

With `O=C1N/C(=N/Cc2ccc3[nH]ccc3c2)C(c2cc(Br)cc(Br)c2)N1c1ccc2nc[nH]c2c1` (stereo not drawn) [Compound 305, 1-(3H-Benzoimidazol-5-yl)-5-(3,5-dibromo-phenyl)-4-1H-indol-5-ylmethylimino-imidazolidin-2-one], the IC50 was found to be 0.004 µM.

In the case of `CN1CCCN(C(=O)C/N=C2/NC(=O)N(c3ccc4[nH]cnc4c3)C2c2ccc3c(c2)OCCO3)CC1` (stereo not drawn) [Compound 306, 1-(1H-Benzoimidazol-5-yl)-5-(2,3-dihydro-benzo1,4dioxin-6-yl)-4-2-(4-methyl-1,4diazepan-1-yl)-2-oxo-ethylimino-imidazolidin-2-one], the IC50 was 2.2 µM.

Regarding `CN1CCCN(C(=O)C/N=C2/NC(=O)N(c3ccc4[nH]cnc4c3)C2c2ccc3[nH]ccc3c2)CC1` (stereo not drawn) [Compound 307, 1-(1H-Benzoimidazol-5-yl)-5-(1H-indol-5-yl)-4-2-(4-methyl-1,4diazepan-1-yl)-2-oxo-ethylimino-imidazolidin-2-one], the IC50 is 2.2 µM.

Turning to `COCC/N=C1/NC(=O)N(c2ccc3[nH]cnc3c2)C1c1ccc(C)cc1` (stereo not drawn) [Compound 308, 1-(1H-Benzoimidazol-5-yl)-4-2-methoxy-ethylimino-5-p-tolyl-imidazolidin-2-one], the IC50 stood at 1.3 µM.

Take `S=C1N/C(=N/Cn2nnc3ccccc32)C(c2ccc3ccccc3c2)N1c1ccc2[nH]cnc2c1` (stereo not drawn) [Compound 309, 1-(1H-Benzoimidazol-5-yl)-4-benzotriazol-1-ylmethylimino-5-naphthalen-2-yl-imidazolidine-2-thione]: the half-inhibitory concentration (IC50) came out at 1.3 µM.

On to `O=C1N/C(=N/C2CC2)C(c2ccc(Br)cc2)N1c1ccc2nc[nH]c2c1` (stereo not drawn) [Compound 310, 1-(3H-Benzoimidazol-5-yl)-5-(4-bromo-phenyl)-4-cyclopropylimino-imidazolidin-2-one], for which the IC50 came to 0.4 µM.

On to `S=C1N/C(=N\C2CCCc3ccccc32)C(c2cc(Br)cs2)N1c1ccc2nc[nH]c2c1` (stereo not drawn) [Compound 311, 1-(3H-Benzoimidazol-5-yl)-5-(4-bromo-thiophen-2-yl)-4-1,2,3,4-tetrahydro-naphthalen-1-ylimino-imidazolidine-2-thione], for which the half-maximal inhibitory concentration (IC50) was determined as 5.8 µM.

Consider `OC1CCCCC1N=C1NC(=S)N(c2ccc3[nH]cnc3c2)C1c1ccc2nsnc2c1` (stereo not drawn) [Compound 312, 1-(1H-Benzoimidazol-5-yl)-5-benzo[c][1,2,5]thiadiazol-5-yl-4-2-hydroxy-cyclohexylimino-imidazolidine-2-thione], for which the IC50 turned out to be 9.4 µM.

`Cc1ccc2occ(C3/C(=N/CCCc4ccccc4)NC(=S)N3c3ccc4[nH]cnc4c3)c(=O)c2c1` (stereo not drawn) [Compound 313, 3-{3-(1H-Benzoimidazol-5-yl)-5-3-phenyl-propylimino-2-thioxo-imidazolidin-4-yl}-6-methyl-chromen-4-one]: the IC50 was 3.1 µM.
